According to patent US20100075345A1, “METHOD OF SCREENING” (priority 2007, published 2010):

Tested on: Mcl-1^(−/−) mouse embryonic fibroblasts (MEFs)
Assay: Assay of Mcl-1 null MEF cells: ABT-737-induced killing and rescue, cell viability by CellTitre-Blue/CellTitre-Glo
Type: cell-based
Description: In summary, cells are split on day one in order to have them at a confluency of 60-80% on day two. On day two, the cells are seeded out into assay plates at a density that will ensure they are not confluent by day four of the assay. The assay plates are incubated at room temperature for 20-60 minutes before being transferred to 37° C. so that edge effects are minimized. For the same reason, assay plates are never stacked on top of each other in the incubator. On day three the cells are treated first with either qVD or with WEHI library compound. […] On day four the cells are incubated for four hours in the presence of CellTitre-Blue™ Cell Viability Assay. This product contains resaruzin which is metabolized by live cells to resorufin. After four hours the level of resorufin is measured. […] This product measures the level of ATP in the cell culture as a direct correlate of cell viability via a luciferase-dependent luminescence output. […]
The protocol for day one was repeated up to the point where the cells were pelleted and the supernatant aspirated off. […] The cells were vortexed and then counted using a haemocytometer. The dilution necessary to achieve a density of 2×10^4 cells ml^−1 (1000 cells per well per 50 μl media) in the required volume was calculated and the dilution performed in 1% FCS containing media. […]

Compound	EC50 (Mus musculus, Fibroblast, ABT-737-treated Mcl(−/−) cells grown in 1% FCS, headed 'Expected EC50s') [nM]	inhibition of killing of Mcl-1 null MEF cells by ABT-737 (rescue from ABT-737-induced apoptosis) (cells pre-incubated 2 hours with compound, then treated with ABT-737, viability read next day)
CC(C)[C@H](NC(=O)c1ccc2ccccc2n1)C(=O)N[C@@H](CC(=O)O)C(=O)COc1c(F)cccc1F [qVD-OPH]		can be rescued
